Assay results: patent US20250115600A1, “COVALENT MODIFIERS OF AKT1 AND USES THEREOF” (Terremoto Biosciences, Inc., priority 2022, published 2025)
pIC50: −log10 of the molar value.

Columns and labels:
[1] = biological target: AKT2 (Homo sapiens (Human), UniProt P31751); experiment: Live cell target engagement (NanoBRET) in HEK293 cells; assay type: cell-based; conditions: HEK293, 2 hours at 37° C.
[2] = biological target: AKT1 E17K mutant protein (Homo sapiens (Human), UniProt P31749, E17K); experiment: Intact mass spectrometry, covalent complex formation and ARQ-092 competition; assay type: binding; conditions: for covalent complex formation with AKT1 E17K mutant protein / covalent complex formation with AKT1 E17K mutant protein in presence of competitor: protein 1 μM, compound 1.5 μM, 2 hrs at 37° C., NaBH4 reduction; for covalent complex formation with AKT1 E17K mutant protein: absence of competitor; for covalent complex formation with AKT1 E17K mutant protein in presence of competitor: with ARQ092 (50 μM); for selectivity of complex formation, AKT1 E17K versus AKT1 WT: comparison of the spectra without competitor
Description: (§1) AKT1 WT or AKT1 E17K (1 μM) was treated with a compound from Table 1 (1.5 μM) for 2 hrs at 37° C., with and without ARQ092 (50 μM) competitor as a specificity control. Reversible imines were captured by reductive amination with 5 mM NaBH4 for 5 min. Reduction reactions were quenched by diluting the sample in equal volume acetonitrile+1% TFA, then analyzed by LCMS.
(§2) FIGS. 1 to 25 provide intact mass spectra for AKT1 WT protein and AKT1 E17K mutant protein after incubation with compounds of the present disclosure and subsequent borohydride reduction. […] Further, FIGS. 1 to 10, 12, and 14 to 25 each provide intact mass spectra following the incubation of an AKT1 protein with a compound of the present disclosure both in the absence of a competitor molecule (i.e., ARQ-092, a molecule known to bind to and inhibit the function of AKT1); and in the presence of a significant stoichiometric excess of a competitor molecule.

[3] = biological target: T1, AKT1 WT (Homo sapiens (Human), UniProt P31749); experiment: as above; assay type: binding; conditions: protein 1 μM, compound 1.5 μM, 2 hrs at 37° C., NaBH4 reduction; for covalent complex formation with AKT1 WT protein: absence of competitor; for covalent complex formation with AKT1 WT protein in presence of competitor: with ARQ092 (50 μM)
Description: as §1, §2
Target sequence in this assay (P31749 2-480): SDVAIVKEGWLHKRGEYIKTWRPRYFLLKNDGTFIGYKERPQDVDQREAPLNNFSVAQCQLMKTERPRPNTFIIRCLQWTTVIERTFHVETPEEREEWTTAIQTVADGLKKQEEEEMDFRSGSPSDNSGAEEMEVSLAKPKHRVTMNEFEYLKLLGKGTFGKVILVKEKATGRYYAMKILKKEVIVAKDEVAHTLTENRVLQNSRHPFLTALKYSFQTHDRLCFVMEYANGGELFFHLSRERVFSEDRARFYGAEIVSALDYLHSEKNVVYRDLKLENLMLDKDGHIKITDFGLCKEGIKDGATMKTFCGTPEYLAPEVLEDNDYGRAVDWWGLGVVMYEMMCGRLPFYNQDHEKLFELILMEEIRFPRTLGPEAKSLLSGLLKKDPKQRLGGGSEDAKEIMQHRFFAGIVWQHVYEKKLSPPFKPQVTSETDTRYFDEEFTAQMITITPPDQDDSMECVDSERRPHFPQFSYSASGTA

[4] = biological target: AKT1 E17K (Homo sapiens (Human), UniProt P31749, E17K); experiment: Live cell target engagement (NanoBRET) in HEK293 cells; assay type: cell-based; conditions: for pIC50: HEK293, 2 hours at 37° C.
[5] = biological target: T1, AKT1 WT; experiment: as above; assay type: cell-based; conditions: HEK293, 2 hours at 37° C.
Target sequence in this assay (P31749 whole entry): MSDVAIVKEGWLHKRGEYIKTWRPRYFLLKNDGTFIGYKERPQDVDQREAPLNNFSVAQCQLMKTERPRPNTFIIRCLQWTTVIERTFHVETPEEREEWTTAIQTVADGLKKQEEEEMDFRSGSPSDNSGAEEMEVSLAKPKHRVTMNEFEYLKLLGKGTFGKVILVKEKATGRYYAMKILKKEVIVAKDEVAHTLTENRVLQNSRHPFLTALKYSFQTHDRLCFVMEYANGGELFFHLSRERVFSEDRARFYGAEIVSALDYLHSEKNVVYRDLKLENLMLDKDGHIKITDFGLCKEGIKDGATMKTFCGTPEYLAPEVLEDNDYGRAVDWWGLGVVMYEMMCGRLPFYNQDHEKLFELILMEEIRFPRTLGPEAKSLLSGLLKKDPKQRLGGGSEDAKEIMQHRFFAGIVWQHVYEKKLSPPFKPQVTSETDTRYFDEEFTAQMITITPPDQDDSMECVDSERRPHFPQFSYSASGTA

Chain of AKT2 (P31751 whole entry): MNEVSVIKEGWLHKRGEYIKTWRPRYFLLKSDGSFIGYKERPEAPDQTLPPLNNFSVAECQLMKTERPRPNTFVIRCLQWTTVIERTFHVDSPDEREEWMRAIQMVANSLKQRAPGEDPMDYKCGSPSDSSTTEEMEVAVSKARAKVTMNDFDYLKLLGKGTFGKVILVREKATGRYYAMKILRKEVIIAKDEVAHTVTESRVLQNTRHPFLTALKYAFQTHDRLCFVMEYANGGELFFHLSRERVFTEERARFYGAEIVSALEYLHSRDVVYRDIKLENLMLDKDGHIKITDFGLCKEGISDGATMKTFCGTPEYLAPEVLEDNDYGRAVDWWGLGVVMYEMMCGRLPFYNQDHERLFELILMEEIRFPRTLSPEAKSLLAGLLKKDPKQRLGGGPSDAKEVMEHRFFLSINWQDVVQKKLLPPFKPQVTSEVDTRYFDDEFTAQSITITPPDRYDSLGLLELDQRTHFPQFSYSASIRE
Chain of AKT1 E17K mutant protein (P31749 2-480 E17K): as the sequence (P31749 2-480) above, with E16K counted along it
Chain of AKT1 E17K (P31749 whole entry E17K): as the sequence (P31749 whole entry) above, with E17K counted along it

`Nc1ncccc1-c1nc2ccc(N3CCOCC3)nc2n1-c1ccc(CNC(=O)Cc2ccc(C=O)c(O)c2)cc1` [Compound 49, N-({4-[2-(2-aminopyridin-3-yl)-5-(morpholin-4-yl)imidazo[4,5-b]pyridin-3-yl]phenyl}methyl)-2-(4-formyl-3-hydroxyphenyl)acetamide] was tested, and the pIC50 [1] was under 6.30, the “covalent complex formation with AKT1 E17K mutant protein” value [2] was “significant presence of a covalent complex” and the “covalent complex formation with AKT1 E17K mutant protein in presence of competitor” value [2] was “Essentially little to no covalent complex formation”. For the same molecule, the “covalent complex formation with AKT1 WT protein” value [3] was “significant presence of covalent complex”, the “covalent complex formation with AKT1 WT protein in presence of competitor” value [3] was “Essentially no covalent complex formation” and the “AKT1 E17K IC50: Selectivity vs AKT1 WT” value [4] was 20. For the same molecule, the “AKT1 E17K IC50: Selectivity vs AKT2” value [4] was 1500, the pIC50 [4] was over 7.00 and the pIC50 [5] was over 7.00.
In the case of `Nc1ncccc1-c1nc2ccc(-c3ccccc3)nc2n1-c1ccc(CNC(=O)c2cc(Cl)c(O)c(C=O)c2)cc1` [Compound 52, N-(4-(2-(2-aminopyridin-3-yl)-5-phenyl-3H-imidazo[4,5-b]pyridin-3-yl)benzyl)-3-chloro-5-formyl-4-hydroxybenzamide], the pIC50 [1] was 6.30 to 7.00, the “selectivity of complex formation, AKT1 E17K versus AKT1 WT” value [2] was “selective for complex formation with AKT1 E17K” and the “covalent complex formation with AKT1 E17K mutant protein” value [2] was “presence of a covalent complex”. The “covalent complex formation with AKT1 E17K mutant protein in presence of competitor” value [2] was “Essentially no covalent complex formation”, the “covalent complex formation with AKT1 WT protein” value [3] was “only peaks corresponding to unmodified WT protein” and the “covalent complex formation with AKT1 WT protein in presence of competitor” value [3] was “only peaks corresponding to unmodified WT protein”. The “AKT1 E17K IC50: Selectivity vs AKT1 WT” value [4] was 1.2, the “AKT1 E17K IC50: Selectivity vs AKT2” value [4] was 11 and the pIC50 [4] was over 7.00. The pIC50 [5] was over 7.00.
With `Nc1ncccc1-c1nc2ccc(N3CCOCC3)nc2n1-c1ccc(C2(NC(=O)Cc3ccc(C=O)c(O)c3F)CC2)cc1` [Compound 140, N-(1-{4-[2-(2-aminopyridin-3-yl)-5-(morpholin-4-yl)imidazo[4,5-b]pyridin-3-yl]phenyl}cyclopropyl)-2-(2-fluoro-4-formyl-3-hydroxyphenyl)acetamide] the pIC50 [1] was 6.30 to 7.00, the “covalent complex formation with AKT1 E17K mutant protein” value [2] was “significant presence of a covalent complex” and the “covalent complex formation with AKT1 E17K mutant protein in presence of competitor” value [2] was “Essentially no covalent complex formation”. The “covalent complex formation with AKT1 WT protein” value [3] was “presence of a covalent complex”, the “covalent complex formation with AKT1 WT protein in presence of competitor” value [3] was “Essentially no covalent complex formation” and the “AKT1 E17K IC50: Selectivity vs AKT1 WT” value [4] was 1.4. The “AKT1 E17K IC50: Selectivity vs AKT2” value [4] was 10, the pIC50 [4] was over 7.00 and the pIC50 [5] was over 7.00.
In the case of `Nc1ncccc1-c1nc2cccnc2n1-c1ccc(CNCCc2ccc(C=O)c(O)c2)cc1` [Compound 114, 4-(2-((4-(2-(2-aminopyridin-3-yl)-3H-imidazo[4,5-b]pyridin-3-yl)benzyl)amino)ethyl)-2-hydroxybenzaldehyde], the pIC50 [1] was under 6.30, the “covalent complex formation with AKT1 E17K mutant protein” value [2] was “presence of covalent complex” and the “covalent complex formation with AKT1 E17K mutant protein in presence of competitor” value [2] was “Essentially no covalent complex formation”. The “covalent complex formation with AKT1 WT protein” value [3] was “presence of covalent complex”, the “covalent complex formation with AKT1 WT protein in presence of competitor” value [3] was “Essentially no covalent complex formation” and the “AKT1 E17K IC50: Selectivity vs AKT1 WT” value [4] was 2.2. For the same molecule, the “AKT1 E17K IC50: Selectivity vs AKT2” value [4] was 14, the pIC50 [4] was over 7.00 and the pIC50 [5] was 6.30 to 7.00.
With `Nc1ncccc1-c1nc2ccc(-c3cccc(N4CCOCC4)c3)nc2n1-c1ccc(CNC(=O)c2ccc(O)c(C=O)c2)cc1` [Example 20, N-(4-(2-(2-aminopyridin-3-yl)-5-(3-morpholinophenyl)-3H-imidazo[4,5-b]pyridin-3-yl)benzyl)-3-formyl-4-hydroxybenzamide] the pIC50 [1] was over 7.00, the “selectivity of complex formation, AKT1 E17K versus AKT1 WT” value [2] was “selective for complex formation with AKT1 E17K” and the “covalent complex formation with AKT1 E17K mutant protein” value [2] was “significant presence of a covalent complex”. The “covalent complex formation with AKT1 E17K mutant protein in presence of competitor” value [2] was “Essentially no covalent complex formation”, the “covalent complex formation with AKT1 WT protein” value [3] was “presence of a covalent complex” and the “covalent complex formation with AKT1 WT protein in presence of competitor” value [3] was “Essentially no covalent complex formation”. For the same molecule, the “AKT1 E17K IC50: Selectivity vs AKT1 WT” value [4] was 2, the “AKT1 E17K IC50: Selectivity vs AKT2” value [4] was 6 and the pIC50 [4] was over 7.00. The pIC50 [5] was over 7.00.
In the case of `Nc1ncccc1-c1nc2ccc(-c3cccnc3)nc2n1-c1ccc(CNCCc2ccc(C=O)c(O)c2)cc1` [Compound 113, 4-(2-((4-(2-(2-aminopyridin-3-yl)-5-(pyridin-3-yl)-3H-imidazo[4,5-b]pyridin-3-yl)benzyl)amino)ethyl)-2-hydroxybenzaldehyde], the pIC50 [1] was under 6.30, the “AKT1 E17K IC50: Selectivity vs AKT1 WT” value [4] was 2.5 and the “AKT1 E17K IC50: Selectivity vs AKT2” value [4] was 57. The pIC50 [4] was over 7.00 and the pIC50 [5] was 6.30 to 7.00.
In the case of `Nc1ncccc1-c1nc2ccc(-c3ccccc3)nc2n1-c1ccc(S(=O)(=O)NCCc2ccc(C=O)c(O)c2)cc1` [Compound 106, 4-[2-(2-aminopyridin-3-yl)-5-phenylimidazo[4,5-b]pyridin-3-yl]-N-[2-(4-formyl-3-hydroxyphenyl)ethyl]benzenesulfonamide], the pIC50 [1] was under 6.30, the “AKT1 E17K IC50: Selectivity vs AKT1 WT” value [4] was 0.85 and the “AKT1 E17K IC50: Selectivity vs AKT2” value [4] was 0.91. For the same molecule, the pIC50 [4] was under 6.30 and the pIC50 [5] was under 6.30.
In the case of `Cn1cc(C(=O)Nc2cc(CC(=O)NCc3ccc(-n4c(-c5cccnc5N)nc5cccnc54)cc3)ccc2C=O)cn1` [Compound 44, N-(5-(2-((4-(2-(2-aminopyridin-3-yl)-3H-imidazo[4,5-b]pyridin-3-yl)benzyl)amino)-2-oxoethyl)-2-formylphenyl)-1-methyl-1H-pyrazole-4-carboxamide], the pIC50 [1] was under 6.30, the “AKT1 E17K IC50: Selectivity vs AKT1 WT” value [4] was 3.6 and the “AKT1 E17K IC50: Selectivity vs AKT2” value [4] was 34. It also gave a pIC50 [4] of 6.30 to 7.00 and a pIC50 [5] of under 6.30.
In the case of `Nc1ncccc1-c1nc2ccc(-c3ccccc3)nc2n1-c1ccc(CNCCc2cc(O)c(C=O)c(F)c2)cc1` [Compound 123, 4-(2-((4-(2-(2-aminopyridin-3-yl)-5-phenyl-3H-imidazo[4,5-b]pyridin-3-yl)benzyl)amino)ethyl)-2-fluoro-6-hydroxybenzaldehyde], the pIC50 [1] was 6.30 to 7.00, the “AKT1 E17K IC50: Selectivity vs AKT1 WT” value [4] was 1 and the “AKT1 E17K IC50: Selectivity vs AKT2” value [4] was 2.2. For the same molecule, the pIC50 [4] was over 7.00 and the pIC50 [5] was over 7.00.
With `Nc1ncccc1-c1nc2cccnc2n1-c1ccc(CCC(=O)Nc2ccc(C=O)c(O)c2)cc1` [Compound 86, 3-(4-(2-(2-aminopyridin-3-yl)-3H-imidazo[4,5-b]pyridin-3-yl)phenyl)-N-(4-formyl-3-hydroxyphenyl)propanamide] the pIC50 [1] was under 6.30, the “AKT1 E17K IC50: Selectivity vs AKT1 WT” value [4] was 25 and the “AKT1 E17K IC50: Selectivity vs AKT2” value [4] was 74. It also gave a pIC50 [4] of over 7.00 and a pIC50 [5] of under 6.30.
With `CC(=O)Nc1cccc(-c2ccc3nc(-c4cccnc4N)n(-c4ccc(CNCCc5ccc(C=O)c(O)c5)cc4)c3n2)c1` [Compound 121, N-{3-[2-(2-aminopyridin-3-yl)-3-[4-({[2-(4-formyl-3-hydroxyphenyl)ethyl]amino}methyl)phenyl]imidazo[4,5-b]pyridin-5-yl]phenyl}acetamide] the pIC50 [1] was 6.30 to 7.00, the “AKT1 E17K IC50: Selectivity vs AKT1 WT” value [4] was 2 and the “AKT1 E17K IC50: Selectivity vs AKT2” value [4] was 6.2. It also gave a pIC50 [4] of over 7.00 and a pIC50 [5] of over 7.00.
With `Nc1ncccc1-c1nc2ccc(-c3ccccc3)nc2n1-c1ccc(CNCCCc2ccc(C=O)c(O)c2)cc1` [Compound 130, 4-(3-((4-(2-(2-aminopyridin-3-yl)-5-phenyl-3H-imidazo[4,5-b]pyridin-3-yl)benzyl)amino)propyl)-2-hydroxybenzaldehyde] the pIC50 [1] was 6.30 to 7.00, the “AKT1 E17K IC50: Selectivity vs AKT1 WT” value [4] was 1.5 and the “AKT1 E17K IC50: Selectivity vs AKT2” value [4] was 7. The pIC50 [4] was over 7.00 and the pIC50 [5] was over 7.00.
With `CC(C)(O)c1ccc2nc(-c3cccnc3N)n(-c3ccc(CNC(=O)Cc4ccc(C=O)c(O)c4)cc3)c2n1` [Example 17, N-({4-[2-(2-aminopyridin-3-yl)-5-(2-hydroxypropan-2-yl)imidazo[4,5-b]pyridin-3-yl]phenyl}methyl)-2-(4-formyl-3-hydroxyphenyl)acetamide] the pIC50 [1] was under 6.30, the “AKT1 E17K IC50: Selectivity vs AKT1 WT” value [4] was 10 and the “AKT1 E17K IC50: Selectivity vs AKT2” value [4] was over 110. The pIC50 [4] was over 7.00 and the pIC50 [5] was under 6.30.
For `Nc1ncccc1-c1nc2ccc(-c3ccccc3)nc2n1-c1ccc(CNC(=O)C2(c3ccc(C=O)c(O)c3)CC2)cc1` [Compound 69, N-({4-[2-(2-aminopyridin-3-yl)-5-phenylimidazo[4,5-b]pyridin-3-yl]phenyl}methyl)-1-(4-formyl-3-hydroxyphenyl)cyclopropane-1-carboxamide], the pIC50 [1] was under 6.30, the “AKT1 E17K IC50: Selectivity vs AKT1 WT” value [4] was 16 and the “AKT1 E17K IC50: Selectivity vs AKT2” value [4] was over 160. The pIC50 [4] was over 7.00 and the pIC50 [5] was under 6.30.
With `CC(=O)Nc1cccc(-c2ccc3nc(-c4cccnc4N)n(-c4ccc(CNC(=O)Cc5ccc(C=O)c(O)c5)cc4)c3n2)c1` [Example 2, N-(4-(5-(3-acetamidophenyl)-2-(2-aminopyridin-3-yl)-3H-imidazo[4,5-b]pyridin-3-yl)benzyl)-2-(4-formyl-3-hydroxyphenyl)acetamide] the pIC50 [1] was under 6.30, the “AKT1 E17K IC50: Selectivity vs AKT1 WT” value [4] was 3.1 and the “AKT1 E17K IC50: Selectivity vs AKT2” value [4] was 19. For the same molecule, the pIC50 [4] was over 7.00 and the pIC50 [5] was 6.30 to 7.00.
